Test system: MCF‐7 cells
Test: Cellular uptake of gold (HR‐CS AAS)
Format: cell-based, human
Conditions: 10 μM, 6 h, not statistically significant
Protocol: It is often assumed that the antiproliferative activity of gold complexes is strongly linked to the efficiency of their cellular uptake and internalization. Moreover, glycoconjugates are commonly believed to enter cells through GLUTs, which, as discussed earlier, are generally over‐expressed in several cancer cells. In particular, GLUT1 is crucial for the uptake of glucose by breast cancer cells, including MDA‐MB‐231 and MCF‐7.^[ [70] ^] […] The gold levels were determined by high‐resolution continuum‐source atomic absorption spectroscopy (HR‐CS AAS) after exposure to 10 μM concentration of the selected compounds over 6 h using either a high‐glucose‐contents or glucose‐free cell culture medium. […]
(§1) The in vitro antiproliferative activity of the various gold complexes was determined following a modified protocol previously reported.[68] […]
in 96-well cell culture plates and incubated at 37°C in 5% CO2 humidified atmosphere (note: for RC-124, pre-treated plates were used as mentioned above). […] The inhibition of cell growth induced by the tested compounds was assessed by measuring the absorbance of each well at 590 nm using a Victor X4 microplate reader (Perkin Elmer). […] Results were calculated as the mean values ± standard deviation (SD) of three […]

SMILES	Gold uptake in glucose‐ and Cytochalasin B‐free medium versus conditions with glucose, Cytochalasin B, or both
CO[C@H]1O[C@H](CO)[C@@H](O)[C@H](O)[C@H]1NC(=O)C1CCN(C2=[S+][Au-]([Br])([Br])[S]2)CC1 [Au4, [Au^IIIBr2(SSC‐Inp‐GlcN2)]]	slightly higher

Same assay, conditions: 10 μM, 6 h, with or without glucose (4.5 g L^−1) and with or without Cytochalasin B 50 μM

SMILES	Gold content (intracellular gold)
NC(=O)C1CCN(C2=[S+][Au-]([Br])([Br])[S]2)CC1 [Au2, [Au^IIIBr2(SSC‐Inp‐NH2)]]	consistently similar cellular uptake values

Test system: HT‐29, MDA‐MB‐231 and MCF‐7 cells
Test: Cell growth inhibition, stated over all tested tumor cell lines
Format: cell-based, human
Conditions: HT‐29, MDA‐MB‐231, MCF‐7
Protocol: (§2) The capability of the gold(III) complexes Au1‐5, the gold(I)‐phosphine derivatives AuP1‐5, and the gold(I)‐carbene counterparts AuC1‐5 to inhibit cell proliferation was assayed on three human tumor cell lines, namely, colorectal adenocarcinoma (HT‐29), metastatic breast adenocarcinoma (MDA‐MB‐231), and breast adenocarcinoma (MCF‐7) cells, whereas human non‐malignant kidney epithelial (RC‐124) cells were used as non‐tumor reference cell line. […]
(§3) high-glucose Dulbecco’s Modified Eagle’s Medium (4.5 g L-1 D-glucose, 4 mM L-glutamine, 1 mM sodium pyruvate, 1.5 g L-1 sodium bicarbonate; Life Technologies). […]
(§4) Cells were cultured at 37°C in 5% CO2 and moisture-enriched atmosphere in the respective medium […]
(§5) (Biochrom) and passaged once a week. […]
Cell growth inhibition assay […]
as §1
in 96-well cell culture plates and incubated at 37°C in 5% CO2 humidified atmosphere (note: for RC-124, pre-treated plates were used as mentioned above). […] The inhibition of cell growth induced by the tested compounds was assessed by measuring the absorbance of each well at 590 nm using a Victor X4 microplate reader (Perkin Elmer). […]

SMILES	IC50 values over the tested tumor cell lines
NC(=O)C1CCN(C2=[S+][Au-]([Br])([Br])[S]2)CC1 [Au2, [Au^IIIBr2(SSC‐Inp‐NH2)]]	low micromolar range
CCOC(=O)C1CCN(C2=[S+][Au-]([Br])([Br])[S]2)CC1 [Au1, [Au^IIIBr2(SSC‐Inp‐OEt)]]	low micromolar range

Test system: not listed separately
Test: Stability in PBS by UV–Vis
Format: physicochemical
Conditions: PBS pH 7.4, 37°C, 25 μM, UV–Vis over time
Protocol: DMSO and DMF are solvents commonly used to prepare stock solutions of metal complexes prior to performing biological studies, especially if poorly soluble in aqueous media. […] However, to mimic a physiological‐like environment, stability studies in phosphate‐buffered saline (PBS) solution at pH 7.4 and 37°C were carried out for the various gold complexes by UV–Vis spectrophotometry.

SMILES	Stability in PBS
CCn1[c]([Au-][S]C(=S)N2CCC(C(=O)NC[C@H]3O[C@H](OC)[C@H](O)[C@@H](O)[C@@H]3O)CC2)[n+](CC)c2ccccc21 [AuC5, [Au^I(SSC‐Inp‐GlcN3)(Et2BzImy)]]	major spectral changes occur soon after dissolution

Test system: HT‐29 cells
Test: Cell growth inhibition assay (Crystal Violet)
Format: cell-based, human
Conditions: HT‐29 colorectal adenocarcinoma cells, 72 h incubation, mean ± SD of three independent experiments
Protocol: as §2, §3, §4, §5
(§6) Cell growth inhibition assay
(§7) Stock solutions of the gold(III) complexes Au1-5, and the gold(I) complexes AuP1-5 and AuC1-5 in DMF were freshly prepared and subsequently diluted with the appropriate complete cell culture medium […]
(§8) The in vitro antiproliferative activity of the various gold complexes was determined following a modified protocol previously reported.[68] 100 µL of HT-29 cells (2.5×10^3 cells mL-1), MDA-MB-231 cells […]
(§9) in 96-well cell culture plates and incubated at 37°C in 5% CO2 humidified atmosphere (note: for RC-124, pre-treated plates were used as mentioned above). After 72 h (MDA-MB-231, MCF-7, RC-124) or 48 h (HT-29), cells were treated with the test compounds at different concentrations (0.01-50 µM) and incubated for further 72 h (HT-29) or 96 h (MDA-MB-231, MCF-7, RC-124) at 37°C. The medium was then discarded, cells were washed with fresh PBS solution and harvested, and the Crystal Violet (Sigma-Aldrich/Merck) staining assay was performed to determine cell viability. The inhibition of cell growth induced by the tested compounds was assessed by measuring the absorbance of each well at 590 nm using a Victor X4 microplate reader (Perkin Elmer). Antiproliferative data are expressed as IC50 values, that is, the concentration (μM) of the test agent inhibiting cell proliferation by 50% compared with untreated […]
(§10) control cultures. […]

SMILES	IC50
CO[C@H]1O[C@H](CO)[C@@H](O)[C@H](O)[C@H]1NC(=O)C1CCN(C(=S)[S][Au][PH](c2ccccc2)(c2ccccc2)c2ccccc2)CC1 [AuP4, [Au^I(SSC‐Inp‐GlcN2)(PPh3)]]	6.3 ± 0.5 µM
CCn1[c]([Au-][S]C(=S)N2CCC(C(N)=O)CC2)[n+](CC)c2ccccc21 [AuC2, [Au^I(SSC‐Inp‐NH2)(Et2BzImy)]]	6.4 ± 1.3 µM
CCOC(=O)CN(C)C(=S)[S][Au]=[c]1n(CC)c2ccccc2n1CC [AuC1, [Au^I(SSC‐Sar‐OEt)(Et2BzImy)]]	1 ± 0.1 µM
NC(=O)C1CCN(C2=[S+][Au-]([Br])([Br])[S]2)CC1 [Au2, [Au^IIIBr2(SSC‐Inp‐NH2)]]	20.1 ± 0.1 µM
CCOC(=O)C1CCN(C2=[S+][Au-]([Br])([Br])[S]2)CC1 [Au1, [Au^IIIBr2(SSC‐Inp‐OEt)]]	1.2 ± 0.2 µM
CCn1[c]([Au-][S]C(=S)N2CCC(C(=O)NC[C@H]3O[C@H](OC)[C@H](O)[C@@H](O)[C@@H]3O)CC2)[n+](CC)c2ccccc21 [AuC5, [Au^I(SSC‐Inp‐GlcN3)(Et2BzImy)]]	11.8 ± 1.1 µM
CO[C@H]1O[C@H](CO)[C@@H](O)[C@H](O)[C@H]1NC(=O)C1CCN(C2=[S+][Au-]([Br])([Br])[S]2)CC1 [Au4, [Au^IIIBr2(SSC‐Inp‐GlcN2)]]	> 50 µM

Test system: MCF‐7 cells
Test: Cell growth inhibition assay (Crystal Violet)
Format: cell-based, human
Conditions: MCF‐7 breast adenocarcinoma cells, 96 h incubation, mean ± SD of three independent experiments
Protocol: as §2, §3, §4, §5, §6, §7, §8, §9, §10

SMILES	IC50
CO[C@H]1O[C@H](CO)[C@@H](O)[C@H](O)[C@H]1NC(=O)C1CCN(C(=S)[S][Au][PH](c2ccccc2)(c2ccccc2)c2ccccc2)CC1 [AuP4, [Au^I(SSC‐Inp‐GlcN2)(PPh3)]]	2.4 ± 0.4 µM
CCn1[c]([Au-][S]C(=S)N2CCC(C(N)=O)CC2)[n+](CC)c2ccccc21 [AuC2, [Au^I(SSC‐Inp‐NH2)(Et2BzImy)]]	4.9 ± 0.6 µM
CCOC(=O)CN(C)C(=S)[S][Au]=[c]1n(CC)c2ccccc2n1CC [AuC1, [Au^I(SSC‐Sar‐OEt)(Et2BzImy)]]	0.5 ± 0.1 µM
NC(=O)C1CCN(C2=[S+][Au-]([Br])([Br])[S]2)CC1 [Au2, [Au^IIIBr2(SSC‐Inp‐NH2)]]	5.1 ± 1 µM
CCOC(=O)C1CCN(C2=[S+][Au-]([Br])([Br])[S]2)CC1 [Au1, [Au^IIIBr2(SSC‐Inp‐OEt)]]	0.8 ± 0.1 µM
CCn1[c]([Au-][S]C(=S)N2CCC(C(=O)NC[C@H]3O[C@H](OC)[C@H](O)[C@@H](O)[C@@H]3O)CC2)[n+](CC)c2ccccc21 [AuC5, [Au^I(SSC‐Inp‐GlcN3)(Et2BzImy)]]	10.6 ± 0.6 µM
CO[C@H]1O[C@H](CO)[C@@H](O)[C@H](O)[C@H]1NC(=O)C1CCN(C2=[S+][Au-]([Br])([Br])[S]2)CC1 [Au4, [Au^IIIBr2(SSC‐Inp‐GlcN2)]]	> 50 µM

Test system: MDA‐MB‐231 cells
Test: Cell growth inhibition assay (Crystal Violet)
Format: cell-based, human
Conditions: MDA‐MB‐231 metastatic breast adenocarcinoma cells, 96 h incubation, mean ± SD of three independent experiments
Protocol: as §2, §3, §4, §5, §6, §7, §8, §9, §10

SMILES	IC50
CO[C@H]1O[C@H](CO)[C@@H](O)[C@H](O)[C@H]1NC(=O)C1CCN(C(=S)[S][Au][PH](c2ccccc2)(c2ccccc2)c2ccccc2)CC1 [AuP4, [Au^I(SSC‐Inp‐GlcN2)(PPh3)]]	2.4 ± 0.7 µM
CCn1[c]([Au-][S]C(=S)N2CCC(C(N)=O)CC2)[n+](CC)c2ccccc21 [AuC2, [Au^I(SSC‐Inp‐NH2)(Et2BzImy)]]	4.7 ± 0.3 µM
CCOC(=O)CN(C)C(=S)[S][Au]=[c]1n(CC)c2ccccc2n1CC [AuC1, [Au^I(SSC‐Sar‐OEt)(Et2BzImy)]]	0.8 ± 0.1 µM
NC(=O)C1CCN(C2=[S+][Au-]([Br])([Br])[S]2)CC1 [Au2, [Au^IIIBr2(SSC‐Inp‐NH2)]]	8.9 ± 1.1 µM
CCOC(=O)C1CCN(C2=[S+][Au-]([Br])([Br])[S]2)CC1 [Au1, [Au^IIIBr2(SSC‐Inp‐OEt)]]	1.4 ± 0.2 µM
CCn1[c]([Au-][S]C(=S)N2CCC(C(=O)NC[C@H]3O[C@H](OC)[C@H](O)[C@@H](O)[C@@H]3O)CC2)[n+](CC)c2ccccc21 [AuC5, [Au^I(SSC‐Inp‐GlcN3)(Et2BzImy)]]	9.6 ± 1.5 µM
CO[C@H]1O[C@H](CO)[C@@H](O)[C@H](O)[C@H]1NC(=O)C1CCN(C2=[S+][Au-]([Br])([Br])[S]2)CC1 [Au4, [Au^IIIBr2(SSC‐Inp‐GlcN2)]]	> 50 µM

Test system: RC‐124 cells
Test: Cell growth inhibition assay (Crystal Violet), non-tumor reference
Format: cell-based, human
Conditions: RC‐124 non‐malignant kidney epithelial cells, 96 h incubation, mean ± SD of three independent experiments
Protocol: as §2
Human non-malignant kidney epithelial (RC-124) cells were maintained in McCoy’s 5A Medium (modified to contain 1.5 mM L-glutamine and 2.2 g L-1 sodium bicarbonate; Life Technologies).
as §4
(Biochrom) and passaged once a week.
For experiments involving RC-124 cells, microtiter plates were pre-treated as follows. 30 µL of a 1.5% m/v sterilized gelatine solution were added to each well of flat-bottomed 96-well plates, plates were covered with their lids and incubated for 1 h at 37°C. The excess solution was then removed, wells were washed with PBS solution (pH 7.4), and new cell culture medium was added.
as §6, §7, §8, §9, §10

SMILES	IC50
CCOC(=O)CN(C)C(=S)[S][Au]=[c]1n(CC)c2ccccc2n1CC [AuC1, [Au^I(SSC‐Sar‐OEt)(Et2BzImy)]]	0.6 ± 0.1 µM
NC(=O)C1CCN(C2=[S+][Au-]([Br])([Br])[S]2)CC1 [Au2, [Au^IIIBr2(SSC‐Inp‐NH2)]]	9.9 ± 0.8 µM
CCOC(=O)C1CCN(C2=[S+][Au-]([Br])([Br])[S]2)CC1 [Au1, [Au^IIIBr2(SSC‐Inp‐OEt)]]	0.6 ± 0.1 µM
CO[C@H]1O[C@H](CO)[C@@H](O)[C@H](O)[C@H]1NC(=O)C1CCN(C2=[S+][Au-]([Br])([Br])[S]2)CC1 [Au4, [Au^IIIBr2(SSC‐Inp‐GlcN2)]]	48.2 ± 13.2 µM
